Measured values taken from ChEMBL document CHEMBL3991601, “The target landscape of clinical kinase drugs” (Science, 2017).
Activity calls are given as the source filed them. For most assays here, no stated cut-off is given here; in the data, actives have a measured Kd and inactives only a lower limit.

Columns and labels:
[1] = target: Tyrosine-protein kinase ABL2 (Homo sapiens, UniProt P42684)
Aurora kinase A = target: T1, Aurora kinase A (Homo sapiens, UniProt O14965)
T1 sequence (O14965 whole entry): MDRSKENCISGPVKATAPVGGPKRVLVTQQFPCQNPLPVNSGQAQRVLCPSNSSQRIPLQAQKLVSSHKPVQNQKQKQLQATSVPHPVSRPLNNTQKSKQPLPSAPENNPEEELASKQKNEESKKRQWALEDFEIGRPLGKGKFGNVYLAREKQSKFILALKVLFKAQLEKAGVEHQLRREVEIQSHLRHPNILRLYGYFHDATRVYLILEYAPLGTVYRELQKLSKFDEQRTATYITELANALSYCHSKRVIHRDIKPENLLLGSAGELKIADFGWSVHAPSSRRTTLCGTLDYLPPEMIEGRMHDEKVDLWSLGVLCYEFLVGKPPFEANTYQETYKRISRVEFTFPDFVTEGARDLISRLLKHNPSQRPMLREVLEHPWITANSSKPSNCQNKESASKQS

[2] = target: Calcium/calmodulin-dependent protein kinase type II subunit delta (Homo sapiens, UniProt Q13557)
[3] = target: T2, ATP-dependent RNA helicase DDX42 (Homo sapiens, UniProt Q86XP3)
T2 sequence (Q86XP3 whole entry): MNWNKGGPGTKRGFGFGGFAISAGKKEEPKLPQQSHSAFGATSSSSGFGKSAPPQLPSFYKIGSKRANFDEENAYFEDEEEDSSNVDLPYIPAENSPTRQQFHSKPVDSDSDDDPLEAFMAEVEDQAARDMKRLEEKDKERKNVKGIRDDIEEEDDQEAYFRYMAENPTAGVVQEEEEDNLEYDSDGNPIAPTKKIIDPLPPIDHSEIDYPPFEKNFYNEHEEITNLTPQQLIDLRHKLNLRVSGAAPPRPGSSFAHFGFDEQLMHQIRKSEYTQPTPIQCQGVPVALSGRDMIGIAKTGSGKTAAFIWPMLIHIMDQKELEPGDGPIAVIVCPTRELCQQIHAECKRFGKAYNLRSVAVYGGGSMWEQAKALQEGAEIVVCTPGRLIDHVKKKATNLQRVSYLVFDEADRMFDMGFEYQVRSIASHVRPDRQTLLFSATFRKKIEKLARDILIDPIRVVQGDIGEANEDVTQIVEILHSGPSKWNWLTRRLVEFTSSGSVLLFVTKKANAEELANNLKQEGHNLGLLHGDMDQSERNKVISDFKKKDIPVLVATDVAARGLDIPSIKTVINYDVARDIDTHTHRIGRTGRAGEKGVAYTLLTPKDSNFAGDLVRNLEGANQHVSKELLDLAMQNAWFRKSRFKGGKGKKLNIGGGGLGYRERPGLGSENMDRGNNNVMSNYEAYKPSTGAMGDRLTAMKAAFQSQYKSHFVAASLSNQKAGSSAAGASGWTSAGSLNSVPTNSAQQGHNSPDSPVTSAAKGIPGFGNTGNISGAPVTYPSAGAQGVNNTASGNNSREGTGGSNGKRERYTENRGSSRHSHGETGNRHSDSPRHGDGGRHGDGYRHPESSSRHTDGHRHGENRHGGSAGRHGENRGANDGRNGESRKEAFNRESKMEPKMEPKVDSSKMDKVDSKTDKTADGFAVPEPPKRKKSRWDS

Ephrin type-A receptor 7 = Ephrin type-A receptor 7 (Homo sapiens, UniProt Q15375)
[4] = target: Mitogen-activated protein kinase kinase kinase kinase 5 (Homo sapiens, UniProt Q9Y4K4)
[5] = target: Mitogen-activated protein kinase 7 (Homo sapiens, UniProt Q13164)
[6] = target: Ras-related protein Rab-6A (Homo sapiens, UniProt P20340)
[7] = target: Serine/threonine-protein kinase 26 (Homo sapiens, UniProt Q9P289)
[8] = target: T3, Serine/threonine-protein kinase 4 (Homo sapiens, UniProt Q13043)
T3 sequence (Q13043 whole entry): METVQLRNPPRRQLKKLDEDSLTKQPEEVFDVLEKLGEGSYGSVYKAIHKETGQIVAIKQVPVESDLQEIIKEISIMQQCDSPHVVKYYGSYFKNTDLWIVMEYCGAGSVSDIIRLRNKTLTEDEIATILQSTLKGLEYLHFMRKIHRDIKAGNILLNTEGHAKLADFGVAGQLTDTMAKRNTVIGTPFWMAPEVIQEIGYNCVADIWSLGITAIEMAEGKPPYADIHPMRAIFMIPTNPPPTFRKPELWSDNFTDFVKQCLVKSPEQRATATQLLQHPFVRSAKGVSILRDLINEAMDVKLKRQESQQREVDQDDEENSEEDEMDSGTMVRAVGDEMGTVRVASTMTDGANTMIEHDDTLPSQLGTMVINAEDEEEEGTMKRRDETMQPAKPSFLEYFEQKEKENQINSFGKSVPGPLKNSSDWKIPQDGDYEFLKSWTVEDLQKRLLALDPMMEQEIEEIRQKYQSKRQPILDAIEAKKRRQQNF

[9] = target: T4, Succinate--CoA ligase [ADP-forming] subunit beta, mitochondrial (Homo sapiens, UniProt Q9P2R7)
T4 sequence (Q9P2R7 whole entry): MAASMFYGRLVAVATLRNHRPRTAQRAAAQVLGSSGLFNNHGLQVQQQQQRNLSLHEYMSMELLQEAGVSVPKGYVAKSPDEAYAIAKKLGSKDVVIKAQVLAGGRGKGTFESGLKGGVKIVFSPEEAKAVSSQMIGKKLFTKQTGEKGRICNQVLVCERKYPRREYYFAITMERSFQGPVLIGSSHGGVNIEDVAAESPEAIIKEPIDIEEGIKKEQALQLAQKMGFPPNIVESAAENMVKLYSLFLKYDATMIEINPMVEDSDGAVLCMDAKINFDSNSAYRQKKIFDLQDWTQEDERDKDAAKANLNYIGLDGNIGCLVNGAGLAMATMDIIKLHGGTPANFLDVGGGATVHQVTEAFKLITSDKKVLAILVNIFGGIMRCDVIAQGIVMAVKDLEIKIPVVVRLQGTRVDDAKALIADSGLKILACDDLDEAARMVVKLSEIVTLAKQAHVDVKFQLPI

[10] = target: Elongation factor Tu, mitochondrial (Homo sapiens, UniProt P49411)

Chain of Serine/threonine-protein kinase 26 (Q9P289 whole entry): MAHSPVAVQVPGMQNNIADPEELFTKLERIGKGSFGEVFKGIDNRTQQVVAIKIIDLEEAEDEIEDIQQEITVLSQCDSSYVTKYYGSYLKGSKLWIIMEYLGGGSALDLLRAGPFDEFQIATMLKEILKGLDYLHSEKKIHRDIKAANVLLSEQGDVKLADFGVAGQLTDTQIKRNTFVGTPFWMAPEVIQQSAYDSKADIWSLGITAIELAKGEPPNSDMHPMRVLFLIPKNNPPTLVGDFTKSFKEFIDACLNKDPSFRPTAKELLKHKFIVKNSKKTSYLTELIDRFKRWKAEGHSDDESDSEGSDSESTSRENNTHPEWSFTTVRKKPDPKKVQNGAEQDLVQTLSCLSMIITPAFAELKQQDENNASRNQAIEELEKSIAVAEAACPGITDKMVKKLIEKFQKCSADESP
Chain of Ras-related protein Rab-6A (P20340 whole entry): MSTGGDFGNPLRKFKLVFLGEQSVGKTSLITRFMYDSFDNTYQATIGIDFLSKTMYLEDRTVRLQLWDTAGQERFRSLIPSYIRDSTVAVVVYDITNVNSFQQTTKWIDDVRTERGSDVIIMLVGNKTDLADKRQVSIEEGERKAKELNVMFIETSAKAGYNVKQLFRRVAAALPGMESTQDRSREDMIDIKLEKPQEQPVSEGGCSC
Chain of Ephrin type-A receptor 7 (Q15375 whole entry): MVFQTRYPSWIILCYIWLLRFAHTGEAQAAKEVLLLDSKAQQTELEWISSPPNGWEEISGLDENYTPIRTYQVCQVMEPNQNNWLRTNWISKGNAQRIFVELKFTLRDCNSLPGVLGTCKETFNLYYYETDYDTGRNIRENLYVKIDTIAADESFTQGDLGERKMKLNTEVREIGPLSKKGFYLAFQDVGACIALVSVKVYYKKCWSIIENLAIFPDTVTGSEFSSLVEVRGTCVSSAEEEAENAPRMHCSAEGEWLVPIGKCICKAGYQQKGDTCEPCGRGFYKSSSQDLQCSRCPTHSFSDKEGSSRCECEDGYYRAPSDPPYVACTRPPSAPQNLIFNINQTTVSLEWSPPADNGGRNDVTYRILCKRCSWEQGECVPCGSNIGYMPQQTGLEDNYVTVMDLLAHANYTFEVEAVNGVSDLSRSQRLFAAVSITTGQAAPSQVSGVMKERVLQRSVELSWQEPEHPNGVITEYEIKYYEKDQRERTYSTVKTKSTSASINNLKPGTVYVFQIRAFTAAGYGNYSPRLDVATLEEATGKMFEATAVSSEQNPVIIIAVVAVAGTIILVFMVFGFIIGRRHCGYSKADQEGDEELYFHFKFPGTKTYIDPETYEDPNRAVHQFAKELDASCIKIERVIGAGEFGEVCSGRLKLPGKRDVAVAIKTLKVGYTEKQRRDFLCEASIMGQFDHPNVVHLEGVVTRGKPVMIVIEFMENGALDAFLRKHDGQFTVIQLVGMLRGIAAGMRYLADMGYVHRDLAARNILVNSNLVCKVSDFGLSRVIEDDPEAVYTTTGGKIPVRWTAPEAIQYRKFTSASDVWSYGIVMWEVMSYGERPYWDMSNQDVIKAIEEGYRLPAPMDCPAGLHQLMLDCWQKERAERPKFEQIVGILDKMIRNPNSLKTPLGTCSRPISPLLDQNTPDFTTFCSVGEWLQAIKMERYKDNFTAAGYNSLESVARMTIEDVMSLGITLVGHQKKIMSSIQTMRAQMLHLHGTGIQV
Chain of Calcium/calmodulin-dependent protein kinase type II subunit delta (Q13557 whole entry): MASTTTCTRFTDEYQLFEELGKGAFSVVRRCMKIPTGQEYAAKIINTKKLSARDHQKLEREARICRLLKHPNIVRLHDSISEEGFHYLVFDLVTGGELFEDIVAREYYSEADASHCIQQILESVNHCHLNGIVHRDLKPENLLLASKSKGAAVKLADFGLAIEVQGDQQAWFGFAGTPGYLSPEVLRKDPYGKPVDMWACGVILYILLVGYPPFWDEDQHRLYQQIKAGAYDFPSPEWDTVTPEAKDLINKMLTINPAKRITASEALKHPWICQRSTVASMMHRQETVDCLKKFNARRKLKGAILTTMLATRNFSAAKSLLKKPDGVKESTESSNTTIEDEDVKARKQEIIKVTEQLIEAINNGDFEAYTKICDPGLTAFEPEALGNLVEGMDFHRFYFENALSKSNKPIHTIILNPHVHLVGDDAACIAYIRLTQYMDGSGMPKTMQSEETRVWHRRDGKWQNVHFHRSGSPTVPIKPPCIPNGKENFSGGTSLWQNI
Chain of Mitogen-activated protein kinase kinase kinase kinase 5 (Q9Y4K4 whole entry): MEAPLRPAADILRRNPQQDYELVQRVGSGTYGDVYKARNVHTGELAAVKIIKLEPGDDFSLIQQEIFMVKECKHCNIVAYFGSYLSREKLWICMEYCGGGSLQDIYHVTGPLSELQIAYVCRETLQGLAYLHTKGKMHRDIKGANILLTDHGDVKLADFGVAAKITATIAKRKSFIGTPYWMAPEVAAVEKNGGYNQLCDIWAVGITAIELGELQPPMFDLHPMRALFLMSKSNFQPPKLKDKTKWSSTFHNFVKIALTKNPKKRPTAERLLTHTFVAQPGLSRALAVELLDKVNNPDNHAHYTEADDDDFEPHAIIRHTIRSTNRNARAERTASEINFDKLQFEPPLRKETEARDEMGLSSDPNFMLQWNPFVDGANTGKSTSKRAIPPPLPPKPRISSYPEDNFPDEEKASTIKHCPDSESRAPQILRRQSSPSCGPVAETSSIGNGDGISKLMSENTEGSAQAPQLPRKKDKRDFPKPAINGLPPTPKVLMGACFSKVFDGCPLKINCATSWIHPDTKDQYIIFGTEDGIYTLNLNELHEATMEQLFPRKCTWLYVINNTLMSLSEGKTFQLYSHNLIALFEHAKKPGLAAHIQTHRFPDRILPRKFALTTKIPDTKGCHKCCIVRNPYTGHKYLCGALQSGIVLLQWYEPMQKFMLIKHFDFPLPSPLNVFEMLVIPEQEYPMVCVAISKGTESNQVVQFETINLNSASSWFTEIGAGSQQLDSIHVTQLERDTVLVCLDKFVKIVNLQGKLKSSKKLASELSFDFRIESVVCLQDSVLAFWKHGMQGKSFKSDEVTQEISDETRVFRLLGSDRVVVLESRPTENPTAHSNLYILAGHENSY
Chain of Mitogen-activated protein kinase 7 (Q13164 whole entry): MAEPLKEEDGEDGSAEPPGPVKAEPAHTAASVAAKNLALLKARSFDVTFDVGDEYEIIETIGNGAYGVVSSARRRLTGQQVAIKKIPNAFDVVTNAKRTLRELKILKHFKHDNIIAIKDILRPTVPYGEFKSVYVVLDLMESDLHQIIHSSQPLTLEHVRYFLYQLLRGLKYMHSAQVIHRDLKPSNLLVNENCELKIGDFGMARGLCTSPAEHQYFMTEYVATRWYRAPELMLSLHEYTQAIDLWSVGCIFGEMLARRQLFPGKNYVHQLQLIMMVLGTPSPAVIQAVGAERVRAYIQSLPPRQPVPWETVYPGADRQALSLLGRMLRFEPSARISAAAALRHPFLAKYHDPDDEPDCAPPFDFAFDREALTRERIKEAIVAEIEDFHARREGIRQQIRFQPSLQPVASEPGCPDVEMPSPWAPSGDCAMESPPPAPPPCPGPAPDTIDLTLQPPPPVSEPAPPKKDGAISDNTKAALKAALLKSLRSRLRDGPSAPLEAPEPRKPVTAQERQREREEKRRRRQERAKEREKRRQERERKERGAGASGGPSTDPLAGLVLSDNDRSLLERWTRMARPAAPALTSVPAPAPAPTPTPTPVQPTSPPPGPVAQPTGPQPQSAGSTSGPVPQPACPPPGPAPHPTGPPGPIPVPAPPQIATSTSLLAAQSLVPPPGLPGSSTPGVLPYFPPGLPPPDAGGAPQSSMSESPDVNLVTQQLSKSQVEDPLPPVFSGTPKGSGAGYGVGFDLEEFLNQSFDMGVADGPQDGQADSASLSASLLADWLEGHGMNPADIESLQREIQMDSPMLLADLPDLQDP
Chain of Tyrosine-protein kinase ABL2 (P42684 whole entry): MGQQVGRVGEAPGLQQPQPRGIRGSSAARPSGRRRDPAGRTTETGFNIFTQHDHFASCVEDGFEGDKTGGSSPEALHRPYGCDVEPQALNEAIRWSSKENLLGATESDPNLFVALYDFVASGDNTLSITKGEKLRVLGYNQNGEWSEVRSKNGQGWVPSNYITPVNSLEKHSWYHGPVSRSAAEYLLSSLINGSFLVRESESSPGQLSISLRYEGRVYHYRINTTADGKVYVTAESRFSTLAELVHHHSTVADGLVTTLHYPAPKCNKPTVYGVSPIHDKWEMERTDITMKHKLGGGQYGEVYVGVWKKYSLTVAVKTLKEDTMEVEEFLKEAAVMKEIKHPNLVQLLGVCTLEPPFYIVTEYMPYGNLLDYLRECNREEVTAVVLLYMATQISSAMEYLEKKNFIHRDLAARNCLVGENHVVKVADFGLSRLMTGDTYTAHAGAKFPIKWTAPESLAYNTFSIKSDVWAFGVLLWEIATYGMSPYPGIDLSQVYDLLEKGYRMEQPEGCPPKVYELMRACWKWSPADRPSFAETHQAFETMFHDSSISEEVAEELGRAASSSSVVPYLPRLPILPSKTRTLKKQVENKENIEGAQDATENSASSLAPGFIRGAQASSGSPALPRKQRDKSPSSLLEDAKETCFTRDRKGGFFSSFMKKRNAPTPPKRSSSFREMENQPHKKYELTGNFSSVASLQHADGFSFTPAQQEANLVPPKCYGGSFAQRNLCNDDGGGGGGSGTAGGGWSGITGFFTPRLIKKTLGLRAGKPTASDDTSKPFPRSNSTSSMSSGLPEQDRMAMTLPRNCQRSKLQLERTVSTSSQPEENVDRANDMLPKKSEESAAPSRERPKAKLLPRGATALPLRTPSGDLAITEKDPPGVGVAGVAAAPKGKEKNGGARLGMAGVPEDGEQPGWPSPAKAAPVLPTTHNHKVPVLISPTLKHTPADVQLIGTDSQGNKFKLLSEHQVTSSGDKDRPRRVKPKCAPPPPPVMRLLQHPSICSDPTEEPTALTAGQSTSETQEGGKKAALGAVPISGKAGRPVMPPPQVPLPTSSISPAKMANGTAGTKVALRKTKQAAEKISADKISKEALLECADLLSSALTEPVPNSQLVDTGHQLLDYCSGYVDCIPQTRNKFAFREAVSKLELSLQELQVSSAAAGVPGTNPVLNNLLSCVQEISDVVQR

## Cn1cc(-c2cnc3ccc4ccc(CS(=O)(=O)NCc5ccccn5)cc4c(=O)c3c2)cn1 [MK-8033]
[1]
  Kd: > 30 µM (inactive)
Aurora kinase A
  Kd: > 30 µM (inactive)
[2]
  Kd: > 30 µM (inactive)
[3]
  Kd: > 30 µM (inactive)
Ephrin type-A receptor 7
  Kd: > 30 µM (inactive)
[4]
  Kd: > 30 µM (inactive)
[5]
  Kd: > 30 µM (inactive)
[6]
  Kd: > 30 µM (inactive)
[7]
  Kd: > 30 µM (inactive)
[8]
  Kd: > 30 µM (inactive)
[9]
  Kd: > 30 µM (inactive)
[10]
  Kd: > 30 µM (inactive)

## CN(C[C@@H]1COCCO1)S(=O)(=O)Nc1ccc2ccc3ncc(-c4cnn(C)c4)cc3c(=O)c2c1 [MK-2461]
[1]
  Kd: > 30 µM (inactive)
Aurora kinase A
  Kd: > 30 µM (inactive)
[2]
  Kd: > 30 µM (inactive)
[3]
  Kd: > 30 µM (inactive)
Ephrin type-A receptor 7
  Kd: > 30 µM (inactive)
[4]
  Kd: > 30 µM (inactive)
[5]
  Kd: > 30 µM (inactive)
[6]
  Kd: > 30 µM (inactive)
[7]
  Kd: > 30 µM (inactive)
[8]
  Kd: > 30 µM (inactive)
[9]
  Kd: > 30 µM (inactive)
[10]
  Kd: > 30 µM (inactive)

## CN1C/C=C/CCOc2cccc(c2)-c2ccnc(n2)Nc2cccc(c2)C1 [ZOTIRACICLIB]
[1]
  Kd: > 30 µM (inactive)
Aurora kinase A
  Kd: > 30 µM (inactive)
[2]
  Kd: > 30 µM (inactive)
[3]
  Kd: > 30 µM (inactive)
Ephrin type-A receptor 7
  Kd: > 30 µM (inactive)
[4]
  Kd: 5.09 µM (active)
[5]
  Kd: > 30 µM (inactive)
[6]
  Kd: > 30 µM (inactive)
[7]
  Kd: > 30 µM (inactive)
[8]
  Kd: 1.8 µM (active)
[9]
  Kd: > 30 µM (inactive)
[10]
  Kd: > 30 µM (inactive)

## Cc1cc(Nc2ncc(Cl)c(Nc3ccccc3S(=O)(=O)C(C)C)n2)c(OC(C)C)cc1C1CCNCC1 [CERITINIB]
[1]
  Kd: > 30 µM (inactive)
Aurora kinase A
  Kd: > 30 µM (inactive)
[2]
  Kd: > 30 µM (inactive)
[3]
  Kd: > 30 µM (inactive)
Ephrin type-A receptor 7
  Kd: > 30 µM (inactive)
[4]
  Kd: > 30 µM (inactive)
[5]
  Kd: 9.85 µM (active)
[6]
  Kd: > 30 µM (inactive)
[7]
  Kd: > 30 µM (inactive)
[8]
  Kd: > 30 µM (inactive)
[9]
  Kd: > 30 µM (inactive)
[10]
  Kd: > 30 µM (inactive)

## C[C@@H](N)c1ccc(C(=O)Nc2ccnc3[nH]ccc23)cc1 [Y-39983]
[1]
  Kd: > 30 µM (inactive)
Aurora kinase A
  Kd: > 30 µM (inactive)
[2]
  Kd: > 30 µM (inactive)
[3]
  Kd: > 30 µM (inactive)
Ephrin type-A receptor 7
  Kd: > 30 µM (inactive)
[4]
  Kd: > 30 µM (inactive)
[5]
  Kd: > 30 µM (inactive)
[6]
  Kd: > 30 µM (inactive)
[7]
  Kd: > 30 µM (inactive)
[8]
  Kd: > 30 µM (inactive)
[9]
  Kd: > 30 µM (inactive)
[10]
  Kd: > 30 µM (inactive)

## N#CC1(c2ccc(NC(=O)c3cccnc3NCc3ccncc3)cc2)CCCC1 [RIVOCERANIB]
[1]
  Kd: > 30 µM (inactive)
Aurora kinase A
  Kd: > 30 µM (inactive)
[2]
  Kd: > 30 µM (inactive)
[3]
  Kd: > 30 µM (inactive)
Ephrin type-A receptor 7
  Kd: > 30 µM (inactive)
[4]
  Kd: > 30 µM (inactive)
[5]
  Kd: > 30 µM (inactive)
[6]
  Kd: > 30 µM (inactive)
[7]
  Kd: > 30 µM (inactive)
[8]
  Kd: > 30 µM (inactive)
[9]
  Kd: > 30 µM (inactive)
[10]
  Kd: > 30 µM (inactive)

## NC1(c2ccc(-c3nc4ccn5c(=O)[nH]nc5c4cc3-c3ccccc3)cc2)CCC1 [MK-2206]
[1]
  Kd: > 30 µM (inactive)
Aurora kinase A
  Kd: > 30 µM (inactive)
[2]
  Kd: > 30 µM (inactive)
[3]
  Kd: > 30 µM (inactive)
Ephrin type-A receptor 7
  Kd: > 30 µM (inactive)
[4]
  Kd: > 30 µM (inactive)
[5]
  Kd: > 30 µM (inactive)
[7]
  Kd: > 30 µM (inactive)
[8]
  Kd: > 30 µM (inactive)
[9]
  Kd: > 30 µM (inactive)
[10]
  Kd: > 30 µM (inactive)

## Cc1nc(NC(=O)N2CCC[C@H]2C(N)=O)sc1-c1ccnc(C(C)(C)C(F)(F)F)c1 [ALPELISIB]
[1]
  Kd: > 30 µM (inactive)
Aurora kinase A
  Kd: > 30 µM (inactive)
[2]
  Kd: > 30 µM (inactive)
Ephrin type-A receptor 7
  Kd: > 30 µM (inactive)
[4]
  Kd: > 30 µM (inactive)
[5]
  Kd: > 30 µM (inactive)
[6]
  Kd: > 30 µM (inactive)
[7]
  Kd: > 30 µM (inactive)
[8]
  Kd: > 30 µM (inactive)
[9]
  Kd: > 30 µM (inactive)
[10]
  Kd: > 30 µM (inactive)

## Cn1ncc(Cl)c1-c1cc(C(=O)N[C@H](CN)Cc2ccc(F)c(F)c2)oc1Cl [UPROSERTIB]
[1]
  Kd: > 30 µM (inactive)
Aurora kinase A
  Kd: > 30 µM (inactive)
[2]
  Kd: > 30 µM (inactive)
[3]
  Kd: > 30 µM (inactive)
Ephrin type-A receptor 7
  Kd: > 30 µM (inactive)
[4]
  Kd: > 30 µM (inactive)
[6]
  Kd: > 30 µM (inactive)
[8]
  Kd: > 30 µM (inactive)
[9]
  Kd: > 30 µM (inactive)
[10]
  Kd: > 30 µM (inactive)

## COc1ncc(-c2ccc3nccc(-c4ccnnc4)c3c2)cc1NS(=O)(=O)c1ccc(F)cc1F [OMIPALISIB]
[1]
  Kd: > 30 µM (inactive)
Aurora kinase A
  Kd: > 30 µM (inactive)
[2]
  Kd: > 30 µM (inactive)
Ephrin type-A receptor 7
  Kd: > 30 µM (inactive)
[4]
  Kd: > 30 µM (inactive)
[5]
  Kd: > 30 µM (inactive)
[6]
  Kd: > 30 µM (inactive)
[7]
  Kd: > 30 µM (inactive)
[8]
  Kd: > 30 µM (inactive)
[9]
  Kd: > 30 µM (inactive)
[10]
  Kd: > 30 µM (inactive)

## Cc1nc(Nc2n[nH]c3c2CN(C(=O)N[C@H](CN(C)C)c2ccccc2)C3(C)C)c2sccc2n1 [PF-03758309]
[1]
  Kd: 0.939 µM (active)
Aurora kinase A
  Kd: 0.981 µM (active)
[3]
  Kd: > 30 µM (inactive)
Ephrin type-A receptor 7
  Kd: > 30 µM (inactive)
[4]
  Kd: > 30 µM (inactive)
[5]
  Kd: 3.89 µM (active)
[6]
  Kd: > 30 µM (inactive)
[7]
  Kd: 0.017 µM
[8]
  Kd: 4.32 µM (active)
[9]
  Kd: > 30 µM (inactive)
[10]
  Kd: > 30 µM (inactive)

## C=CC(=O)N1CCC[C@H](n2c(=O)n(-c3ccc(Oc4ccccc4)cc3)c3c(N)ncnc32)C1
[1]
  Kd: > 30 µM (inactive)
Aurora kinase A
  Kd: > 30 µM (inactive)
[2]
  Kd: > 30 µM (inactive)
[3]
  Kd: > 30 µM (inactive)
Ephrin type-A receptor 7
  Kd: > 30 µM (inactive)
[4]
  Kd: > 30 µM (inactive)
[5]
  Kd: > 30 µM (inactive)
[7]
  Kd: > 30 µM (inactive)
[8]
  Kd: > 30 µM (inactive)
[9]
  Kd: > 30 µM (inactive)
[10]
  Kd: > 30 µM (inactive)

## FC(F)(F)c1ccc(/C=C/c2nc(COc3ccc(CCCCn4ccnn4)cc3)co2)cc1 [MUBRITINIB]
[1]
  Kd: > 30 µM (inactive)
Aurora kinase A
  Kd: > 30 µM (inactive)
[2]
  Kd: > 30 µM (inactive)
Ephrin type-A receptor 7
  Kd: > 30 µM (inactive)
[4]
  Kd: > 30 µM (inactive)
[5]
  Kd: > 30 µM (inactive)
[6]
  Kd: > 30 µM (inactive)
[7]
  Kd: > 30 µM (inactive)
[8]
  Kd: > 30 µM (inactive)
[9]
  Kd: > 30 µM (inactive)
[10]
  Kd: > 30 µM (inactive)
